Patent US9018248B2, “Fatty acid derivatives of catechins and methods of their use” (Genesis Group Inc., priority 2010, dated 2015)

What was measured:
PGE2 production = PGE2 production in LPS-stimulated RAW264.7 macrophages (EIA); type: cell-based, mouse; details: FIG. 10
Text: The level of PGE2 released into the culture medium was quantified by a specific enzyme immunoassay (EIA) method using a ACE™ EIA kit according to the manufacturer's instructions. FIG. 10 illustrates that the production of the inflammatory mediator PGE2 was inhibited by 10a (EGCG-DPA). The EGCG ester 10a has improved lipophilicity and cellular absorption, and therefore provides synergistic effects with respect to the DPA (a competitive inhibitor against the omega-6 fatty acid arachidonic acid) for the COX enzymes) and EGCG (COX-2 inhibitor) moieties.

iNOS mRNA = iNOS mRNA expression in LPS-stimulated RAW264.7 macrophages (RT-PCR); type: cell-based, mouse; details: FIG. 12
Protocol: (§1) Total RNA was isolated from mouse macrophage RAW264.7 cell using Trizol Reagent according to the manufacturer's instructions. Changes in the steady-state concentration of mRNA in iNOS, COX-2, and β-actin (control) were assessed by RT-PCR. Total RNA (2 μg) was converted to cDNA in a series of standard 10 μl reverse transcription reactions. DNA amplification was carried out in “Ready To Go” PCR Beads. The initial conditions were 95° C. for 5 min. Amplification 30 cycles of iNOS were 95° C. for 40 s, 65° C. for 60 s, and 72° C. for 2 min, followed by a 10 min extension at 72° C. The thermal cycle conditions of COX-2 were initiated at 95° C. for […], then 30 cycles of amplification (94° C. for 45 s, 55° C. for 60 s, and 72° C. for 2 min) were performed followed by 10 min extension at 72° C. The PCR products were separated by electrophoresis on a 1% agarose gel and visualized by ethidium bromide staining. Amplification of β-actin served as a control for sample loading and integrity. PCR was performed on the cDNA using the following sense and antisense primer: iNOS, forward primer 5′-[…]-[…]-3′ (2944-2968), reverse primer 5′-[…]-[…]-3′ (3419-3443); COX-2, forward primer 5′-[…]-[…]-3′ (1094-1117), reverse primer 5′-[…]-3′ (1931-1954); β-actin, forward primer 5′-[…]-3′, reverse primer 5′-[…]-3′. Confirmation of the correct amplicons was obtained by direct DNA sequencing of the PCR products.

[1] = tested on: LPS-induced NO production; test: LPS-induced NO production in RAW 264.7 macrophage (Griess reaction); type: cell-based, murine; details: LPS-stimulated RAW264.7 macrophages
Protocol: RAW 264.7 cells were cultured in Rosewell Park Memorial Institute (RPMI) 1640 media (without phenol red) supplemented with 10% endotoxin-free, heat-inactivated fetal calf serum, 100 units/ml penicillin, and 100 μg/ml streptomycin. When the cells reached a density of 2-3×10^6 cells/ml, they were activated by incubation in a medium containing E. coli lipopolysaccharide (LPS) (100 ng/ml). Various concentrations of compounds of the disclosure in dimethyl sulphoxide (DMSO) were added together with LPS. Cells were treated with 0.05% DMSO as the vehicle control. The stimulated murine macrophage cell line RAW 264.7 cells were washed with PBS and lysed in an ice-cold RIPA buffer (Tris-HCl, pH 7.2, 25 mM; 0.1% SDS; 1% Triton X-100; 1% sodium deoxycholate; 0.15 M NaCl; 1 mM EDTA) containing 1 mM phenylmethyl sulphonyl fluoride (PMSF), 10 μg/mL aprotinin, 1 mM sodium ortho-vanadate, and 5 μg/mL leupeptin. Protein concentrations were determined using the BCA method (Pierce, Rockford, Ill.). The samples (50 μg of protein) were mixed with 5-fold of sample buffer containing 0.3 M Tris-HCl (pH 6.8), 25% 2-mercaptoethanol, 12% sodium dodecyl sulphate (SDS), 25 mM EDTA, 20% glycerol, and 0.1% bromophenol blue. The mixtures were boiled at 100° C. for 5 min, prerun on a stacking gel, and then resolved by 12% SDS-polyacrylamide minigels at a constant current of 20 mA. For western blot, proteins on the gel were electro-transferred onto a […] immobile polyvinylidene fluoride (PVDF) membrane with a transfer buffer composed of 25 mM Tris-HCl (pH 8.9), 192 mM glycine, and 20% methanol, as described by Pan et al. (2000). Membrane blocking was then carried out at room temperature for 1 h in blocking solution (20 mM Tris-HCl pH 7.4, 125 mM NaCl, 0.2% Tween 20, 1% bovine serum albumin, and 0.1% sodium azide). The membrane was incubated with the primary antibody of iNOS and COX-2 at 4° C. overnight. The membranes were subsequently probed with selected IgG antibody conjugated to horseradish peroxidase (Transduction Laboratories, Lexington, Ky.) and visualized using enhanced chemiluminescence (ECL, Amersham). The densities of the bands were quantitated using a densitometer (AlphaImager 2200 System). All the membranes were stripped and reprobed for β-actin (Sigma Chemical Co., St. Louis, Mo.) as loading control. […] The inhibition of iNOS induction by compounds of the disclosure may be due to down regulation of iNOS gene expression. […] (7b) Inhibition Against LPS-Induced NO Production in RAW 264.7 Macrophage The LPS-induced NO production by the macrophages was determined as nitrite concentration in the culture medium according to the Griess reaction. […] The absorbance of the mixture at 550 nm was measured with an ELISA plate reader (Dynatech MR-7000; Dynatech Laboratories, Chantilly, Va., USA). […]

COX-2 [2] = test: COX-2 protein expression in LPS-stimulated RAW 264.7 macrophages (western blot); type: cell-based, murine; details: LPS 100 ng/ml, RAW 264.7, western blot
Protocol: RAW 264.7 cells were cultured in Rosewell Park Memorial Institute (RPMI) 1640 media (without phenol red) supplemented with 10% endotoxin-free, heat-inactivated fetal calf serum, 100 units/ml penicillin, and 100 μg/ml streptomycin. When the cells reached a density of 2-3×10^6 cells/ml, they were activated by incubation in a medium containing E. coli lipopolysaccharide (LPS) (100 ng/ml). Various concentrations of compounds of the disclosure in dimethyl sulphoxide (DMSO) were added together with LPS. Cells were treated with 0.05% DMSO as the vehicle control. The stimulated murine macrophage cell line RAW 264.7 cells were washed with PBS and lysed in an ice-cold RIPA buffer (Tris-HCl, pH 7.2, 25 mM; 0.1% SDS; 1% Triton X-100; 1% sodium deoxycholate; 0.15 M NaCl; 1 mM EDTA) containing 1 mM phenylmethyl sulphonyl fluoride (PMSF), 10 μg/mL aprotinin, 1 mM sodium ortho-vanadate, and 5 μg/mL leupeptin. Protein concentrations were determined using the BCA method (Pierce, Rockford, Ill.). The samples (50 μg of protein) were mixed with 5-fold of sample buffer containing 0.3 M Tris-HCl (pH 6.8), 25% 2-mercaptoethanol, 12% sodium dodecyl sulphate (SDS), 25 mM EDTA, 20% glycerol, and 0.1% bromophenol blue. The mixtures were boiled at 100° C. for 5 min, prerun on a stacking gel, and then resolved by 12% SDS-polyacrylamide minigels at a constant current of 20 mA. For western blot, proteins on the gel were electro-transferred onto a […] immobile polyvinylidene fluoride (PVDF) membrane with a transfer buffer composed of 25 mM Tris-HCl (pH 8.9), 192 mM glycine, and 20% methanol, as described by Pan et al. (2000). Membrane blocking was then carried out at room temperature for 1 h in blocking solution (20 mM Tris-HCl pH 7.4, 125 mM NaCl, 0.2% Tween 20, 1% bovine serum albumin, and 0.1% sodium azide). The membrane was incubated with the primary antibody of iNOS and COX-2 at 4° C. overnight. The membranes were subsequently probed with selected IgG antibody conjugated to horseradish peroxidase (Transduction Laboratories, Lexington, Ky.) and visualized using enhanced chemiluminescence (ECL, Amersham). The densities of the bands were quantitated using a densitometer (AlphaImager 2200 System). All the membranes were stripped and reprobed for β-actin (Sigma Chemical Co., St. Louis, Mo.) as loading control. […] The inhibition of iNOS induction by compounds of the disclosure may be due to down regulation of iNOS gene expression. EGCG and compounds of the disclosure with antioxidant activities may inhibit the ROS/RNS-mediated activation of NF-κB, the transcription factor that promotes gene expression of iNOS. […] The difference in their ability to inhibit production of iNOS and COX-2 may be due to other mechanisms involved in addition to blocking the NF-κB signalling pathway. EGCG and its derivatives may also suppress the cytokine production by breaking down the mRNA and protein of iNOS and COX-2 to varied degrees. (7b) Inhibition Against LPS-Induced NO Production in RAW 264.7 Macrophage The LPS-induced NO production by the macrophages was determined as nitrite concentration in the culture medium according to the Griess reaction. The culture medium of the control and treated cells was collected and centrifuged. An aliquot (100 μL) of the supernatant was mixed with an equal volume of Griess reagent. The absorbance of the mixture at 550 nm was measured with an ELISA plate reader (Dynatech MR-7000; Dynatech Laboratories, Chantilly, Va., USA). […]

COX-2 mRNA = COX-2 mRNA expression in LPS-stimulated RAW264.7 macrophages (RT-PCR); type: cell-based, mouse; details: FIG. 12
Protocol: as §1

iNOS [3] = test: iNOS protein expression in LPS-stimulated RAW 264.7 macrophages (western blot); type: cell-based, murine; details: LPS 100 ng/ml, RAW 264.7, western blot; 20 and 40 μM for 1a-1c
Protocol: RAW 264.7 cells were cultured in Rosewell Park Memorial Institute (RPMI) 1640 media (without phenol red) supplemented with 10% endotoxin-free, heat-inactivated fetal calf serum, 100 units/ml penicillin, and 100 μg/ml streptomycin. When the cells reached a density of 2-3×10^6 cells/ml, they were activated by incubation in a medium containing E. coli lipopolysaccharide (LPS) (100 ng/ml). Various concentrations of compounds of the disclosure in dimethyl sulphoxide (DMSO) were added together with LPS. Cells were treated with 0.05% DMSO as the vehicle control. The stimulated murine macrophage cell line RAW 264.7 cells were washed with PBS and lysed in an ice-cold RIPA buffer (Tris-HCl, pH 7.2, 25 mM; 0.1% SDS; 1% Triton X-100; 1% sodium deoxycholate; 0.15 M NaCl; 1 mM EDTA) containing 1 mM phenylmethyl sulphonyl fluoride (PMSF), 10 μg/mL aprotinin, 1 mM sodium ortho-vanadate, and 5 μg/mL leupeptin. Protein concentrations were determined using the BCA method (Pierce, Rockford, Ill.). The samples (50 μg of protein) were mixed with 5-fold of sample buffer containing 0.3 M Tris-HCl (pH 6.8), 25% 2-mercaptoethanol, 12% sodium dodecyl sulphate (SDS), 25 mM EDTA, 20% glycerol, and 0.1% bromophenol blue. The mixtures were boiled at 100° C. for 5 min, prerun on a stacking gel, and then resolved by 12% SDS-polyacrylamide minigels at a constant current of 20 mA. For western blot, proteins on the gel were electro-transferred onto a […] immobile polyvinylidene fluoride (PVDF) membrane with a transfer buffer composed of 25 mM Tris-HCl (pH 8.9), 192 mM glycine, and 20% methanol, as described by Pan et al. (2000). […] The densities of the bands were quantitated using a densitometer (AlphaImager 2200 System). […] (7b) Inhibition Against LPS-Induced NO Production in RAW 264.7 Macrophage The LPS-induced NO production by the macrophages was determined as nitrite concentration in the culture medium according to the Griess reaction. […] The absorbance of the mixture at 550 nm was measured with an ELISA plate reader (Dynatech MR-7000; Dynatech Laboratories, Chantilly, Va., USA). […]

iNOS [4] = test: iNOS expression in colon of AOM-treated mice (western blot); type: in vivo, ICR mice; details: western blot of colon mucosa
Protocol: (§2) Male ICR mice at 5 weeks of age were purchased from the BioLASCO Experimental Animal Center (Taiwan Co., Ltd). After 1 week of acclimation, animals were randomly distributed into control and experimental groups. All animals were housed in a controlled atmosphere (25±1° C. at 50% relative humidity) and with a 12-hour light/12-hour dark cycle. Animals had free access to food and water at all times. Food cups were replenished with fresh diet every day. The experimental protocol is illustrated in FIG. 6. Mice were divided into 6 groups. One group (negative control) was fed standard diet; one group (positive control) was fed standard diet but injected with azozymethane (AOM) twice a week for 2 weeks; the remaining 4 groups had AOM injection and dietary supplementation of different levels of EGCG esters (1a and EGCG-DHA ester mixture containing predominantly 1c and its homologues). 9(b): Identification of ACF The formalin-fixed colonic tissues were cut into proximal (1-2 cm from the cecum), middle (3-4 cm) and distal (1-2 cm from anus) segments and stained in 0.2% methylene blue solution for 10 min. Methylene blue-stained ACF in each focus were counted under a microscope (×40). The ACF location (distance from anus) and size (number of aberrant crypts) were recorded. […] The densities of the bands were quantitated with a computer densitometer (AlphaImager™ 2200 System). […]

HCV NS3/4A protease = HCV NS3/4A protease (Hepatitis C virus genotype 1a, UniProt P27958); test: Inhibition against HCV protease; type: biochemical
Chain of HCV NS3/4A protease (P27958 1027-1657): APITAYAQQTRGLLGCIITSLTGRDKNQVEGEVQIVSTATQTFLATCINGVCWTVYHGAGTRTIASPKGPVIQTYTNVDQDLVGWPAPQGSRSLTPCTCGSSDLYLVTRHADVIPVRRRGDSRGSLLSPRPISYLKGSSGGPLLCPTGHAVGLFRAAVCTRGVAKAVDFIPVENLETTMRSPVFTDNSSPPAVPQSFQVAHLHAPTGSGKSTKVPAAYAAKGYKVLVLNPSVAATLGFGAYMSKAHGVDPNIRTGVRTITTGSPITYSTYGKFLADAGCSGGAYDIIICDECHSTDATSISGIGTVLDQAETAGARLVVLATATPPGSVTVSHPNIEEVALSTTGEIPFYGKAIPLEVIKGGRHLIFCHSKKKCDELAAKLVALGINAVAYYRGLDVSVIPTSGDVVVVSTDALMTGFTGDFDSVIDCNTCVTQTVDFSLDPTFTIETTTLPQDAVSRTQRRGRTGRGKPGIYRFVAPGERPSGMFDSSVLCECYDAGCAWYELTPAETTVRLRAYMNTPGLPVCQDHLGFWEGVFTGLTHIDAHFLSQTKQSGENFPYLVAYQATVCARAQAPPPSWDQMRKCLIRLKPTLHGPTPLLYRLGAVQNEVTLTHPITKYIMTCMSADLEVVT
Chain of HCV NS3/4A protease (P27958 1658-1711): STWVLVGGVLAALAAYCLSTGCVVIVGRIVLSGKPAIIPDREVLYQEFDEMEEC
Protocol: An aliquot (2 μl) of test compounds dissolved in DMSO was added to each well of a 384-well black Assay plate, followed by addition of 8 μl of HCV NS3/4A protease solution (0.5 μg/ml). The reaction was initiated by adding 10 μl of freshly diluted substrate (100× dilution of a DMSO stocking solution). The mixture was incubated at room temperature for 30 min, and the fluorescence intensity was measured at 485 nm for excitation and 535 nm for emission by a TECAN GENios plate reader. […] All fluorescence values were corrected with a substrate blank. Samples were assayed at different concentrations to plot a concentration VS. inhibition percentage curve, and IC50 values were obtained from the curve for each sample. A known HCV protease inhibitor, embelin, was used as a reference. Discussion

COX-2 [5] = test: COX-2 expression in colon of AOM-treated mice (western blot); type: in vivo, ICR mice; details: western blot of colon mucosa
Protocol: as §2

[6] = tested on: colon ACF and colon tumors in AOM treated mice; test: AOM-treated mice, colon aberrant crypt foci and tumors; type: in vivo, ICR mice
Protocol: as §2

EGCG-docosapentaenoate [Compound 10a]
Inhibition of PGE2 production (PGE2 production): inhibited
Inhibition of iNOS mRNA expression (iNOS mRNA): inhibited
Inhibition of NO production (in words) [1]: inhibited by 10a (EGCG-DPA) more effectively than DPA
Inhibition of COX-2 protein expression (COX-2 [2]): inhibited
Inhibition of COX-2 mRNA expression (COX-2 mRNA): inhibited
Inhibition of iNOS protein expression (iNOS [3]): inhibited

CCCC(=O)Oc1cc(OC(=O)CCC)c2c(c1)OC(c1cc(OC(=O)CCC)c(OC(=O)CCC)c(OC(=O)CCC)c1)C(OC(=O)c1cc(OC(=O)CCC)c(OC(=O)CCC)c(OC(=O)CCC)c1)C2 (stereo not drawn) [Compound 1g, EGCG-octabutyrate]
iNOS expression in mice colon (iNOS [4]): dose-dependent inhibitory effect
IC50 (HCV NS3/4A protease; HCV NS3/4A protease 0.5 μg/ml, 30 min, room temperature): 980 nM
HCV protease inhibitory activity relative to embelin (HCV NS3/4A protease; fold stronger than embelin): 10 fold
COX-2 expression in mice colon (COX-2 [5]): dose-dependent inhibitory effect
Colon tumors ([6]; AOM treated mice, FIG. 7): inhibited to a lesser level
Tumorogenesis in terms of number and size of ACF ([6]; AOM-injected male ICR mice, dietary supplementation): significantly suppressed tumorogenesis
